Test results: US12257237B2 (priority 2017, dated 2025)
“And” between values parts separate entries of the source, which are not always exact repeats. Equal values may be shown once.

Experiment: Drug tolerability (body weight) in DD013 dedifferentiated liposarcoma xenograft model
Assay type: in vivo, Athymic nude mice
Design: key to Animal status: †: sacrificed moribund
Conditions: for Mouse body weight: individual mice
Procedure: Experiments were performed with female Athymic nude mice, 9-10 weeks old obtained from Harlan Laboratories (Udine, Italy). They were maintained under Specific Pathogen Free conditions with constant temperature and humidity, according to the institutional guidelines.
Tumour growth mice was monitored two/three times a week (depending on tumour growth rate, to avoid unnecessary stress to the animals) by Vernier caliper. Mice were sacrificed when tumour reached a mean weight of 2±0.5 gr. The antitumour activity will be expressed as T/C %, where T and C were the mean tumour weight of treated and control groups, respectively. Mice were monitored daily and weighted at least two times a week. Tolerability was evaluated on the basis of body weight loss (BWL) and clinical observation.

[1] = EDO40 (40 mg/kg), day 23 from inoculum
[2] = EDO40 (40 mg/kg), day 26 from inoculum
[3] = EDO40 (40 mg/kg), day 33 from inoculum
[4] = EDO40 (40 mg/kg), day 36 from inoculum
[5] = EDO40 (40 mg/kg), day 40 from inoculum
[6] = EDO40 (40 mg/kg), day 43 from inoculum
[7] = EDO40 (40 mg/kg), day 50 from inoculum
[8] = EDO40 (40 mg/kg), day 54 from inoculum
[9] = EDO40 (40 mg/kg), day 58 from inoculum
[10] = EDO40 (40 mg/kg), day 62 from inoculum
[11] = EDO40 (40 mg/kg), day 65 from inoculum
[12] = EDO40 (40 mg/kg), day 69 from inoculum
[13] = EDO40 (40 mg/kg), day 72 from inoculum
[14] = EDO40 (40 mg/kg), day 75 from inoculum
[15] = EDO40 (40 mg/kg), day 79 from inoculum
[16] = EDO40 (40 mg/kg), day 83 from inoculum
[17] = EDO40 (40 mg/kg), day 87 from inoculum
[18] = EDO40 (40 mg/kg), day 90 from inoculum
[19] = EDO40 (40 mg/kg), day 94 from inoculum
[20] = EDO40 (40 mg/kg), day 98 from inoculum
[21] = EDO40 (40 mg/kg), day 100 from inoculum
[22] = EDO60 (60 mg/kg), day 23 from inoculum
[23] = EDO60 (60 mg/kg), day 26 from inoculum
[24] = EDO60 (60 mg/kg), day 29 from inoculum
[25] = EDO60 (60 mg/kg), day 33 from inoculum
[26] = EDO60 (60 mg/kg), day 36 from inoculum
[27] = EDO60 (60 mg/kg), day 40 from inoculum
[28] = EDO80 (80 mg/kg), day 23 from inoculum
[29] = EDO80 (80 mg/kg), day 26 from inoculum
[30] = EDO80 (80 mg/kg), day 29 from inoculum
[31] = EDO80 (80 mg/kg), day 33 from inoculum
[32] = EDO80 (80 mg/kg), day 36 from inoculum
[33] = EDO80 (80 mg/kg), day 40 from inoculum
[34] = EDO80 (80 mg/kg), day 43 from inoculum
[35] = EDO80 (80 mg/kg), day 47 from inoculum
[36] = EDO80 (80 mg/kg), day 50 from inoculum
[37] = EDO80 (80 mg/kg), day 54 from inoculum
[38] = EDO80 (80 mg/kg), day 58 from inoculum
[39] = EDO80 (80 mg/kg), day 62 from inoculum
[40] = EDO80 (80 mg/kg), day 65 from inoculum
[41] = EDO80 (80 mg/kg), day 69 from inoculum
[42] = EDO80 (80 mg/kg), day 72 from inoculum
[43] = EDO80 (80 mg/kg), day 75 from inoculum
[44] = EDO80 (80 mg/kg), day 79 from inoculum
[45] = EDO80 (80 mg/kg), day 83 from inoculum
[46] = EDO80 (80 mg/kg), day 87 from inoculum
[47] = EDO80 (80 mg/kg), day 90 from inoculum
[48] = EDO80 (80 mg/kg), day 94 from inoculum
[49] = EDO80 (80 mg/kg), day 98 from inoculum
[50] = EDO80 (80 mg/kg), day 100 from inoculum
[51] = EDO80 (80 mg/kg), day 103 from inoculum

Cn1c(CCCCCCC(=O)NO)nc2cc(N(CCCl)CCCl)ccc21 [EDO-S101, 7-(5-(bis(2-chloroethyl)amino)-1-methyl-1H-benzo[d]imidazol-2-yl)-N-hydroxyheptanamide]
rapid BWL of one mouse (sacrificed) (80 mg/kg group, between day 75 and 79 from inoculum): > 30% | BWL % [1]: 0.0% | Mouse body weight, Mean [1]: 23.6 g | BWL % [2]: −1.7% | Mouse body weight, Mean [2]: 23.2 g | Mouse body weight, Mean (EDO40 (40 mg/kg), day 29 from inoculum): 24.7 g | BWL % [3]: 2.4% | Mouse body weight, Mean [3]: 24.2 g | BWL % [4]: 4.1% | Mouse body weight, Mean [4]: 24.6 g | BWL % [5]: 6.1% | Mouse body weight, Mean [5]: 25.0 g | BWL % [6]: 6.2% | Mouse body weight, Mean [6]: 25.1 g | Mouse body weight, Mean (EDO40 (40 mg/kg), day 47 from inoculum): 26.0 g | BWL % [7]: 11.7% | Mouse body weight, Mean [7]: 26.4 g | BWL % [8]: 10.1% | Mouse body weight, Mean [8]: 26.0 g | BWL % [9]: 8.3% | Mouse body weight, Mean [9]: 25.6 g | BWL % [10]: 11.0% | Mouse body weight, Mean [10]: 26.2 g | BWL % [11]: 9.1% | Mouse body weight, Mean [11]: 25.8 g | BWL % [12]: 13.3% | Mouse body weight, Mean [12]: 26.8 g | BWL % [13]: 13.3% | Mouse body weight, Mean [13]: 26.8 g | BWL % [14]: 15.6% | Mouse body weight, Mean [14]: 27.3 g | BWL % [15]: 13.8% | Mouse body weight, Mean [15]: 26.9 g | BWL % [16]: 14.3% | Mouse body weight, Mean [16]: 27.0 g | BWL % [17]: 14.4% | Mouse body weight, Mean [17]: 27.0 g | BWL % [18]: 17.9% | Mouse body weight, Mean [18]: 27.8 g | BWL % [19]: 16.0% | Mouse body weight, Mean [19]: 27.4 g | BWL % [20]: 18.3% | Mouse body weight, Mean [20]: 27.9 g | BWL % [21]: 15.7% | Mouse body weight, Mean [21]: 27.3 g | BWL % [22]: 0.0% | Mouse body weight, Mean [22]: 23.3 g | BWL % [23]: −4.5% | Mouse body weight, Mean [23]: 22.3 g | BWL % [24]: 1.7% | Mouse body weight, Mean [24]: 23.7 g | BWL % [25]: −0.8% | Mouse body weight, Mean [25]: 23.1 g | BWL % [26]: 2.5% | Mouse body weight, Mean [26]: 23.9 g | BWL % [27]: −0.6% | Mouse body weight, Mean [27]: 23.2 g | Mouse body weight, Mean (EDO60 (60 mg/kg), day 43 from inoculum): 24.1 g | Mouse body weight, Mean (EDO60 (60 mg/kg), day 47 from inoculum): 25.2 g | Mouse body weight, Mean (EDO60 (60 mg/kg), day 50 from inoculum): 25.3 g | Mouse body weight, Mean (EDO60 (60 mg/kg), day 54 from inoculum): 25.6 g | Mouse body weight, Mean (EDO60 (60 mg/kg), day 58 from inoculum): 25.5 g | Mouse body weight, Mean (EDO60 (60 mg/kg), day 62 from inoculum): 25.5 g | Mouse body weight, Mean (EDO60 (60 mg/kg), day 69 from inoculum): 25.9 g | Mouse body weight, Mean (EDO60 (60 mg/kg), day 72 from inoculum): 26.3 g | Mouse body weight, Mean (EDO60 (60 mg/kg), day 75 from inoculum): 26.0 g | Mouse body weight, Mean (EDO60 (60 mg/kg), day 79 from inoculum): 24.8 g | Mouse body weight, Mean (EDO60 (60 mg/kg), day 83 from inoculum): 24.5 g | Mouse body weight, Mean (EDO60 (60 mg/kg), day 87 from inoculum): 24.6 g | Mouse body weight, Mean (EDO60 (60 mg/kg), day 90 from inoculum): 24.8 g | Mouse body weight, Mean (EDO60 (60 mg/kg), day 94 from inoculum): 25.3 g | Mouse body weight, Mean (EDO60 (60 mg/kg), day 98 from inoculum): 26.2 g | Mouse body weight, Mean (EDO60 (60 mg/kg), day 111 from inoculum): 25.6 g | Mouse body weight, Mean (EDO60 (60 mg/kg), day 114 from inoculum): 25.3 g | Mouse body weight, Mean (EDO60 (60 mg/kg), day 118 from inoculum): 25.5 g | BWL % [28]: 0.0% | Mouse body weight, Mean [28]: 24.2 g | Mouse body weight [28]: 26.1 g and 25.7 g and 25 g and 23.1 g and 24 g and 26.2 g and 22.4 g and 22.3 g | BWL % [29]: −3.4% | Mouse body weight, Mean [29]: 21.9 g | Mouse body weight [29]: 23.4 g and 23.6 g and 22 g and 21.3 g and 20.9 g and 20.1 g and 22.4 g and 21.6 g and 21.9 g | BWL % [30]: 4.2% | Mouse body weight, Mean [30]: 21.7 g | Mouse body weight [30]: 22.7 g and 22.6 g and 21.5 g and 22.2 g and 21 g (3×) and 21.6 g (2×) | BWL % [31]: 1.3% | Mouse body weight, Mean [31]: 23.7 g | Mouse body weight [31]: 25.1 g (2×) and 24 g and 23.1 g and 21.9 g and 22.5 g | BWL % [32]: 5.9% | Mouse body weight, Mean [32]: 25.5 g | Mouse body weight [32]: 27 g and 25.3 g and 24.7 g and 23.8 g and 26.3 g and 24.2 g and 24.6 g | BWL % [33]: 2.5% | Mouse body weight [33]: 28.6 g and 27 g and 25.7 g and 24.4 g (2×) and 27.9 g and 24 g | BWL % [34]: 8.0% | Mouse body weight, Mean [34]: 25.8 g | Mouse body weight [34]: 28.5 g and 26.5 g and 25 g (2×) and 26.9 g and 24.2 g and 24.4 g | BWL % [35]: 5.9% | Mouse body weight, Mean [35]: 25.9 g | Mouse body weight [35]: 27.9 g and 26.1 g and 24.6 g (2×) and 24.2 g and 27.4 g and 24.4 g | BWL % [36]: 7.6% | Mouse body weight, Mean [36]: 25.8 g | Mouse body weight [36]: 27.9 g and 26.8 g and 24.6 g and 24.4 g and 26.3 g and 23.2 g and 25.3 g | BWL % [37]: 8.0% | Mouse body weight, Mean [37]: 26.2 g | Mouse body weight [37]: 27.7 g and 26.7 g and 25.8 g and 25 g (2×) and 28 g and 24.8 g | BWL % [38]: 12.2% | Mouse body weight, Mean [38]: 27.0 g | Mouse body weight [38]: 28.7 g and 29.8 g and 28 g and 27.4 g and 26.9 g and 25 g (2×) | BWL % [39]: 8.4% | Mouse body weight, Mean [39]: 23.5 g | Mouse body weight [39]: 25.7 g and 24.4 g and 23.9 g and 24 g and 22.7 g and 21.9 g and 23.7 g and 23.8 g and 21.4 g | BWL % [40]: 8.0% | Mouse body weight, Mean [40]: 23.9 g | BWL % [41]: 6.3% | Mouse body weight, Mean [41]: 25.2 g | Mouse body weight [41]: 28.7 g | BWL % [42]: 9.7% | Mouse body weight, Mean [42]: 25.9 g | Mouse body weight [42]: 30.7 g | BWL % [43]: 13.9% | Mouse body weight, Mean [43]: 26.4 g | Mouse body weight [43]: 30.6 g | BWL % [44]: 8.8% | Mouse body weight, Mean [44]: 24.6 g | Mouse body weight [44]: 28.7 g | BWL % [45]: 7.6% | Mouse body weight, Mean [45]: 24.1 g | Mouse body weight [45]: 24.1 g | Animal status (EDO80 (80 mg/kg), day 83 from inoculum, mouse # 56): † | BWL % [46]: 5.0% | Mouse body weight, Mean [46]: 23.8 g | Mouse body weight [46]: 25.3 g | BWL % [47]: 2.9% | Mouse body weight, Mean [47]: 25.4 g | Mouse body weight [47]: 29.2 g | BWL % [48]: 0.0% | Mouse body weight, Mean [48]: 27.4 g | BWL % [49]: 2.9% | Mouse body weight, Mean [49]: 28.0 g | Mouse body weight [49]: 31.1 g | BWL % [50]: 0.4% | Mouse body weight, Mean [50]: 27.5 g | Mouse body weight [50]: 29.7 g | BWL % [51]: −0.8% | Mouse body weight, Mean [51]: 27.3 g | Mouse body weight [51]: 25.9 g | BWL (all doses and schedules): < 5%
